Values joined by “and” are separate entries in the source; they are usually repeats but may differ in a detail not shown here. Identical values can stand only once.
Tests used:
Caco-2 cells = experiment: Cytotoxicity in Caco-2 cells, CCK-8 assay; assay type: cell-based, human; settings: for Cell survival rate%: mean; for cck-8 mean (survival fraction): mean of 6
Description: Caco-2 cells were cultured in 96-well plates for 48 h at a seeding density of 5.0 × 10^3 cells/well before the addition of drugs. […] The final concentration of DMSO was 0.05% (v/v). Experiments were initiated by replacing the culture medium in each well with 100 μL of sample solutions at 37°C in the CO2 incubator. After 48 h of incubation, the medium was removed and 10 μL of CCK-8 reagent in the serum-free medium was added to each well. The plates were then incubated at 37°C for another 2 h. At the end of the incubation period, the plates were quantified by reading the absorbance at 450 nm on a micro-plate multi-detection instrument, SpectraMax iD3 with SoftMax® Pro (Molecular Devices Corporation Sunnyvale, CA, USA). The percentage of cell viability was calculated based on the absorbance measured relative to the absorbance of cells exposed to the negative control.

P-glycoprotein (P-gp) = target: T1, P-glycoprotein (P-gp) (Homo sapiens, UniProt P08183); experiment: Rhodamine 123 (P-gp substrate) transport across drug-treated Caco-2 cell monolayers; assay type: cell-based; settings: co-incubated with R123, 10 μM, Caco-2 monolayer, Fig 6
T1 construct: The transport of R123 in normal Caco-2 cell monolayers or drug-treated Caco-2 cell monolayers was further studied; host or cells: Caco-2
Excerpt: The human epithelial cell line Caco-2 serves as a widely recognized model for the intestinal epithelial barrier, frequently utilized in the assessment of drug absorption and transport mechanisms. In this study, we evaluated drug absorption and distribution in vitro with the help of the Caco-2 cell model. Caco-2 cells were purchased from the Chinese Academy of Medical Sciences (Beijing, China, Resource No. 3111C0001CCC000100). The cells were resuscitated and inserted into culture flasks. Caco-2 cells were passaged with DMEM high glucose medium containing 10% (V/V) FBS, 1% (V/V) non-essential amino acid solution and 100 U/mL penicillin-streptomycin double antibiotic solution, and cultured at 37°C in a 5% CO2 incubator. […] The integrity of the cell monolayer was checked by measuring the transmembrane electrical resistance (TEER) of the monolayer cells with a Millicell-ERS electrode (Millipore Corp., Billerica, MA, USA). Caco-2 cells were used for transport experiments 17–21 days after inoculation. Besides, only monolayers with TEER values above 400 Ω/cm^2 were used in the study.
The transport of R123 in normal Caco-2 cell monolayers or drug-treated Caco-2 cell monolayers was further studied. […] The transport buffer containing 5 μM of R123 was added on either the AP or the BL side of the inserts, as described above. […] The concentrations of R123 were immediately analyzed by SpectraMax iD3. The excitation wavelength was set at 485 nm, and the emission wavelength at 535 nm. Papp values across the cell monolayers were calculated according to the equation: Papp = dQ/dt × 1/(A × C0), where dQ/dt represents the rate of drug transport. […] The efflux ratio was calculated using the Papp (BL-AP) to Papp (AP-BL) ratio.

[1] = Stability of the five compounds in SD rat plasma (QC samples, UHPLC-ESI-MS/MS); assay type: in vitro ADME; settings: for mean measured concentration: rat plasma, mean of 5; for stability, Accuracy (measured versus nominal concentration) / stability, mean ± SD (measured concentration): SD rat plasma, n=5
Description: The method was validated according to the US Food and Drug Administration (FDA) Bioanalytical Method Validation Guidance as follows: [1] specificity was assessed by analyzing blank plasma, blank plasma spiked with standard solutions and rat plasma samples after oral administration. Each calibration curve was plotted using the concentration of the standard solution as the horizontal coordinate and the ratio of analyte to internal standard peak area as the vertical coordinate. The lower limit of quantification (LLOQ) refers to the lowest concentration, which is typically 10 times the signal-to-noise ratio. It has an acceptable accuracy of ± 20% and a precision of less than 20% [3]. Quality Control (QC) samples (low, medium and high concentrations) were prepared for each analyte. Five samples were analyzed at each concentration level and three consecutive batches were determined to calculate the accuracy and precision of the method. Extraction recovery was assessed by the ratio of the average peak area of routinely prepared QC samples (low, medium, and high concentrations) to the post-extraction plasma sample. Likewise, matrix effect was assessed by the ratio of peak areas between post-extraction samples spiked with analytes and mobile phases spiked with the same concentration of analytes.

[2] = male, Sprague Dawley, rat, in vivo, po, 352 mg/kg
in vivo = settings: male, Sprague Dawley, rat, po, 352 mg/kg
[3] = Caco-2, concentration 10 μmol/L
[4] = Caco-2, concentration 20 μmol/L
[5] = Caco-2, concentration 40 μmol/L
[6] = Caco-2, concentration 80 μmol/L
[7] = nominal 160 ng/mL, 3 freeze-thaw cycles
[8] = nominal 160 ng/mL, 7 days at -80°C
[9] = nominal 160 ng/mL, Room temperature 24h
[10] = nominal 1000 ng/mL, 3 freeze-thaw cycles
[11] = nominal 1000 ng/mL, 7 days at -80°C
[12] = nominal 1000 ng/mL, Room temperature 24h
[13] = nominal 5000 ng/mL, 3 freeze-thaw cycles
[14] = nominal 5000 ng/mL, 7 days at -80°C
[15] = nominal 5000 ng/mL, Room temperature 24h

T1 sequence (P08183 whole entry): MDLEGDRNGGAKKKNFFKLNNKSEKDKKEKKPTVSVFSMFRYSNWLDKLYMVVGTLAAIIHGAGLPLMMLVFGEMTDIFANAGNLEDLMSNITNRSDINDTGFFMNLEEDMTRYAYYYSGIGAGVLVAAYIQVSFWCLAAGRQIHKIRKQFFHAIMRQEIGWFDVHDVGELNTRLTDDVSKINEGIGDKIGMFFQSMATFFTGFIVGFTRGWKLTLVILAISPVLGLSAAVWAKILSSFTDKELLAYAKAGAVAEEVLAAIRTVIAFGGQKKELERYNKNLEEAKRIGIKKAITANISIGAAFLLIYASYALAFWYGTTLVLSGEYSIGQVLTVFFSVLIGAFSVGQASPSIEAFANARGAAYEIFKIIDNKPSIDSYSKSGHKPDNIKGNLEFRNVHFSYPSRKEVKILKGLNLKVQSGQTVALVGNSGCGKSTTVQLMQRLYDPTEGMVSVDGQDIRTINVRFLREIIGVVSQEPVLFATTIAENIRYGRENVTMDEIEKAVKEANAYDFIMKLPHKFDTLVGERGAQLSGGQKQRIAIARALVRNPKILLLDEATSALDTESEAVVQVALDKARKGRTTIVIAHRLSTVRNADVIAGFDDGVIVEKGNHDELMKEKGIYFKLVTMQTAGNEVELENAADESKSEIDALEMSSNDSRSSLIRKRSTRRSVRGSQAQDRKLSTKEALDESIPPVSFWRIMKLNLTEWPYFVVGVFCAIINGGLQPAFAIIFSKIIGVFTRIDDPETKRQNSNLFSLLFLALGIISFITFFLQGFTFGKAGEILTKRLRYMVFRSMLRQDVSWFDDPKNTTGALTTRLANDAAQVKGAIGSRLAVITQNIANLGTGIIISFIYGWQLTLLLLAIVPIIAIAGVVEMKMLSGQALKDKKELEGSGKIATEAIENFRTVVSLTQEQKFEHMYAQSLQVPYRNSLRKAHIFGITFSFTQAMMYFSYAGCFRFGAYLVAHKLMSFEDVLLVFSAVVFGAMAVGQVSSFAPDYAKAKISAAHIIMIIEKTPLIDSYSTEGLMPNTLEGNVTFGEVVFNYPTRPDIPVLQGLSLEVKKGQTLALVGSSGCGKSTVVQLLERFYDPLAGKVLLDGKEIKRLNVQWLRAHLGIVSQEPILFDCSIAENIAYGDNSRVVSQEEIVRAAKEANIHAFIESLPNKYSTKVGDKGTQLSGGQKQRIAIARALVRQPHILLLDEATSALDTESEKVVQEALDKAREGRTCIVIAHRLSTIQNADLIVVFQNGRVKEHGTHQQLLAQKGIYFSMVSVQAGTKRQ

reduction of R123 transport from the BL side to the AP side (P-glycoprotein (P-gp)): 26.82% | mean measured concentration ([1]; AA QC 160ng, 3 freeze-thaw cycles): 175.436 ng/mL | mean measured concentration ([1]; AA QC 160ng, 7 days at -80°C): 168.832 ng/mL | mean measured concentration ([1]; AA QC 160ng, Room temperature 24h): 151.908 ng/mL | mean measured concentration ([1]; AA QC 1000ng, 3 freeze-thaw cycles): 947.702 ng/mL | mean measured concentration ([1]; AA QC 1000ng, 7 days at -80°C): 919.418 ng/mL | mean measured concentration ([1]; AA QC 1000ng, Room temperature 24h): 955.778 ng/mL | mean measured concentration ([1]; AA QC 5000ng, 3 freeze-thaw cycles): 4777.45 ng/mL | mean measured concentration ([1]; AA QC 5000ng, 7 days at -80°C): 4737.9 ng/mL | mean measured concentration ([1]; AA QC 5000ng, Room temperature 24h): 4689.24 ng/mL | stability, Accuracy (measured versus nominal concentration) [1, 7]: 109.65% | stability, mean ± SD (measured concentration) [1, 7]: 175 ± 7.36 ng/mL | stability, Accuracy (measured versus nominal concentration) [1, 8]: 105.52% | stability, mean ± SD (measured concentration) [1, 8]: 169 ± 8.62 ng/mL | stability, Accuracy (measured versus nominal concentration) [1, 9]: 94.94% | stability, mean ± SD (measured concentration) [1, 9]: 152 ± 6.95 ng/mL | stability, Accuracy (measured versus nominal concentration) [1, 10]: 94.77% | stability, mean ± SD (measured concentration) [1, 10]: 948 ± 56.6 ng/mL | stability, Accuracy (measured versus nominal concentration) [1, 11]: 91.94% | stability, mean ± SD (measured concentration) [1, 11]: 919 ± 34.8 ng/mL | stability, Accuracy (measured versus nominal concentration) [1, 12]: 95.58% | stability, mean ± SD (measured concentration) [1, 12]: 956 ± 68.0 ng/mL | stability, Accuracy (measured versus nominal concentration) [1, 13]: 95.55% | stability, mean ± SD (measured concentration) [1, 13]: 4777 ± 82.6 ng/mL | stability, Accuracy (measured versus nominal concentration) [1, 14]: 94.76% | stability, mean ± SD (measured concentration) [1, 14]: 4738 ± 174 ng/mL | stability, Accuracy (measured versus nominal concentration) [1, 15]: 93.78% | stability, mean ± SD (measured concentration) [1, 15]: 4689 ± 298 ng/mL | CL [2]: 0.001 ± 0.001 L/h | CLz [2]: 24 mL/day/kg | AUC(0-inf) (in vivo): 23700 ± 4990 ng·h/mL | AUC(0-t) (in vivo): 23000 ± 4720 ng·h/mL | Cmax (in vivo; Cmax): 5370 ± 590 ng/mL | half-life (in vivo; t1/2): 4.29 ± 1.37 h
SMILES: C=C(C(=O)O)[C@@H]1CC[C@@H](C)[C@@H]2CCC(C)=C[C@@H]21 [AA, Artemisinic acid]
Cell survival rate%, single replicate (Caco-2 cells; Caco-2, 5μmol/L): 86.78% and 81.42% and 81.32% and 82.7% and 86.07% and 80.23% | Cell survival rate%, single replicate (Caco-2 cells; Caco-2, 10μmol/L): 83.23% and 82.76% and 85.19% and 84.02% and 81.01% (2×) | Cell survival rate%, single replicate (Caco-2 cells; Caco-2, 20μmol/L): 82.79% and 80.95% and 80.96% and 82.01% and 83.04% and 83.63% | Cell survival rate%, single replicate (Caco-2 cells; Caco-2, 40μmol/L): 79.21% and 80.38% and 82.01% and 81.79% and 85.15% and 82.39% | Cell survival rate%, single replicate (Caco-2 cells; Caco-2, 80μmol/L): 81.2% and 78.64% and 82.71% and 80.82% and 78.89% and 79.03% | cck-8 cell survival as fraction, single replicate (Caco-2 cells; Caco-2, concentration 5 μmol/L): 0.8678 and 0.8142 and 0.8132 and 0.827 and 0.8607 and 0.8023 | Cell survival rate% (Caco-2 cells; Caco-2, concentration 5 μmol/L): 83.09% | cck-8 mean (survival fraction) (Caco-2 cells; Caco-2, concentration 5 μmol/L): 0.83 | cck-8 cell survival as fraction, single replicate (Caco-2 cells; [3]): 0.8323 and 0.8276 and 0.8519 and 0.8402 and 0.8101 | Cell survival rate% (Caco-2 cells; [3]): 82.87% | cck-8 mean (survival fraction) (Caco-2 cells; [3]): 0.83 | cck-8 cell survival as fraction, single replicate (Caco-2 cells; [4]): 0.8279 and 0.8095 and 0.8096 and 0.8201 and 0.8304 and 0.8363 | Cell survival rate% (Caco-2 cells; [4]): 82.23% | cck-8 mean (survival fraction) (Caco-2 cells; [4]): 0.82 | cck-8 cell survival as fraction, single replicate (Caco-2 cells; [5]): 0.7921 and 0.8038 and 0.8201 and 0.8179 and 0.8515 and 0.8239 | Cell survival rate% (Caco-2 cells; [5]): 81.82% | cck-8 mean (survival fraction) (Caco-2 cells; [5]): 0.82 | cck-8 cell survival as fraction, single replicate (Caco-2 cells; [6]): 0.812 and 0.7864 and 0.8271 and 0.8082 and 0.7889 and 0.7903 | Cell survival rate% (Caco-2 cells; [6]): 80.22% | cck-8 mean (survival fraction) (Caco-2 cells; [6]): 0.80

From PMC12058161, “The plant matrix of Artemisia annua L. for the treatment of malaria: Pharmacodynamic and pharmacokinetic studies” (PLOS One, 2025)
